The supplement of paper PMC10307832

Tests used:
Experiment in all cases: relative viability (nuclei count vs DMSO), 5 days (fraction); higher = more cells survive
JZL-184 + Trametinib = compound: C1CN(CCC1C(C2=CC3=C(C=C2)OCO3)(C4=CC5=C(C=C4)OCO5)O)C(=O)OC6=CC=C(C=C6)[N+](=O)[O-] [JZL-184] + CC(=O)Nc1cccc(-n2c(=O)n(C3CC3)c(=O)c3c(Nc4ccc(I)cc4F)n(C)c(=O)c(C)c32)c1 [Trametinib] (partner 0.02 µM)
Outline: (§1)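 After 5 days of treatment, lung cancer cells in 1536-well plates were fixed and stained in a single step (final 0.05% Triton X-100, 1% formaldehyde, 1 ug/ml Hoechst) and their nuclei counted on 4× images. Treatment had been applied by pin tool the day after seeding as one drug alone or as a fixed anchor-drug dose with five library-drug doses (not always all listed) in √10 steps. Relative viability is the nuclei count of treated wells divided by that of vehicle wells, and values are medians of duplicate plates.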

JZL-184 + Navitoclax = compound: C1CN(CCC1C(C2=CC3=C(C=C2)OCO3)(C4=CC5=C(C=C4)OCO5)O)C(=O)OC6=CC=C(C=C6)[N+](=O)[O-] [JZL-184] + CC1(C)CCC(c2ccc(Cl)cc2)=C(CN2CCN(c3ccc(C(=O)NS(=O)(=O)c4ccc(N[C@H](CCN5CCOCC5)CSc5ccccc5)c(S(=O)(=O)C(F)(F)F)c4)cc3)CC2)C1 [Navitoclax] (partner 0.5 µM)
Outline: as §1

JZL-184 + Lapatinib = compound: C1CN(CCC1C(C2=CC3=C(C=C2)OCO3)(C4=CC5=C(C=C4)OCO5)O)C(=O)OC6=CC=C(C=C6)[N+](=O)[O-] [JZL-184] + CS(=O)(=O)CCNCc1ccc(-c2ccc3ncnc(Nc4ccc(OCc5cccc(F)c5)c(Cl)c4)c3c2)o1 [Lapatinib] (partner 2 µM)
Outline: as §1

JZL-184 + Dasatinib = compound: C1CN(CCC1C(C2=CC3=C(C=C2)OCO3)(C4=CC5=C(C=C4)OCO5)O)C(=O)OC6=CC=C(C=C6)[N+](=O)[O-] [JZL-184] + Cc1nc(Nc2ncc(C(=O)Nc3c(C)cccc3Cl)s2)cc(N2CCN(CCO)CC2)n1 [Dasatinib] (partner 0.075 µM)
Outline: as §1

JZL-184 + Foretinib = compound: C1CN(CCC1C(C2=CC3=C(C=C2)OCO3)(C4=CC5=C(C=C4)OCO5)O)C(=O)OC6=CC=C(C=C6)[N+](=O)[O-] [JZL-184] + COc1cc2c(Oc3ccc(NC(=O)C4(C(=O)Nc5ccc(F)cc5)CC4)cc3F)ccnc2cc1OCCCN1CCOCC1 [Foretinib] (partner 0.25 µM)
Outline: as §1

Cell Line | relative viability (JZL-184 + Trametinib; first compound 0.04 µM) | relative viability (JZL-184 + Trametinib; first compound 0.4 µM) | relative viability (JZL-184 + Trametinib; first compound 1.265 µM) | relative viability (JZL-184 + Trametinib; first compound 4 µM) | relative viability (JZL-184 + Navitoclax; first compound 0.04 µM) | relative viability (JZL-184 + Navitoclax; first compound 0.4 µM) | relative viability (JZL-184 + Navitoclax; first compound 1.265 µM) | relative viability (JZL-184 + Navitoclax; first compound 4 µM) | relative viability (JZL-184 + Lapatinib; first compound 0.04 µM) | relative viability (JZL-184 + Lapatinib; first compound 0.4 µM) | relative viability (JZL-184 + Lapatinib; first compound 1.265 µM) | relative viability (JZL-184 + Lapatinib; first compound 4 µM) | relative viability (JZL-184 + Dasatinib; first compound 0.04 µM) | relative viability (JZL-184 + Dasatinib; first compound 0.4 µM) | relative viability (JZL-184 + Dasatinib; first compound 1.265 µM) | relative viability (JZL-184 + Dasatinib; first compound 4 µM) | relative viability (JZL-184 + Foretinib; first compound 0.04 µM) | relative viability (JZL-184 + Foretinib; first compound 0.4 µM) | relative viability (JZL-184 + Foretinib; first compound 1.265 µM) | relative viability (JZL-184 + Foretinib; first compound 4 µM)
NCI-H2023 | 0.717 | 0.612 | 0.568 | 0.54 | 1.07 | 0.942 | 1.02 | 0.963 | 1.14 | 0.853 | 0.964 | 0.802 | 0.713 | 0.549 | 0.587 | 0.48 | 1.01 | 0.874 | 0.978 | 0.79
NCI-H2085 | – | 0.515 | 0.527 | 0.603 | 1.1 | 1.18 | 1.13 | 1.08 | – | 0.657 | 0.764 | 0.753 | 0.236 | 0.234 | 0.299 | 0.261 | 0.954 | 0.827 | 1.12 | 0.96
NCI-H2087 | 0.181 | 0.173 | 0.182 | 0.188 | 1 | 0.997 | 1.18 | 0.996 | 1.29 | 0.824 | 0.99 | 1.18 | 0.905 | 0.905 | 0.716 | 0.875 | 1.01 | 1.03 | 1.17 | 1.19
NCI-H2126 | 0.506 | 0.603 | 0.602 | 0.503 | 0.847 | 0.807 | 0.897 | 0.873 | 0.755 | 0.779 | 0.768 | 0.764 | 0.612 | 0.639 | 0.607 | 0.612 | 1.15 | 1.09 | 1.14 | 1.12
NCI-H2170 | 1.01 | 0.855 | 0.864 | 0.825 | 0.66 | 0.589 | 0.621 | 0.547 | 0.302 | 0.252 | 0.285 | 0.275 | 0.654 | 0.476 | 0.577 | 0.598 | 1.05 | 0.941 | 0.977 | 0.966
NCI-H2228 | 0.465 | 0.472 | 0.704 | 0.629 | 0.841 | 0.823 | 0.836 | 0.91 | 1.37 | 0.796 | 1.03 | 1.15 | 0.663 | 0.445 | 0.543 | 0.587 | 1.07 | 0.701 | 0.992 | 0.803
NCI-H2347 | – | 0.313 | 0.275 | 0.283 | 0.68 | 0.706 | 0.82 | 0.903 | 1.1 | 0.884 | 0.953 | 0.815 | 0.277 | 0.305 | 0.29 | 0.369 | 0.771 | 0.884 | 1.13 | 1.3
NCI-H2405 | 0.703 | 0.664 | 0.69 | 0.45 | 0.97 | 0.847 | 1.03 | 0.884 | 1.17 | 1.04 | 1.21 | 0.96 | 0.222 | 0.21 | 0.225 | 0.231 | 1.08 | 1.06 | 1.13 | 1
NCI-H3122 | 0.211 | 0.168 | 0.242 | 0.242 | 1.03 | 0.98 | 0.968 | 1.01 | 0.959 | 0.916 | 1.01 | 1.08 | 0.918 | 0.718 | 0.872 | 0.778 | 1.03 | 0.954 | 0.944 | 0.983
PC-3 [JPC-3] | 0.779 | 0.71 | 0.708 | 0.687 | 0.794 | 0.838 | 0.791 | 0.77 | 0.521 | 0.439 | 0.441 | 0.435 | 1.01 | 0.905 | 0.976 | 0.945 | 1.08 | 0.975 | 1.09 | 0.913
PC-14 | 1.1 | 0.693 | 0.738 | 0.635 | 0.998 | 1 | 0.964 | 0.992 | 0.39 | 0.316 | 0.325 | 0.327 | 0.293 | 0.271 | 0.287 | 0.255 | 1.02 | 0.927 | 0.954 | 0.946
RERF-LC-KJ | 0.952 | 0.868 | 0.876 | 0.781 | 1.01 | 1.1 | 0.951 | 0.825 | 0.961 | 0.835 | 0.874 | 0.772 | 0.909 | 0.72 | 0.864 | 0.759 | 0.933 | 0.9 | 0.876 | 0.781
SK-LU-1 | 0.448 | 0.402 | 0.653 | 0.46 | 1.36 | 0.866 | 0.915 | 0.823 | 1.21 | 0.814 | 0.962 | 0.822 | 0.183 | 0.196 | 0.194 | 0.207 | 0.909 | 0.77 | 0.919 | 0.722
SK-MES-1 | 0.623 | 0.524 | 0.609 | 0.5 | 1.35 | 1.14 | 1.12 | 1.17 | 0.424 | 0.434 | 0.43 | 0.415 | 0.332 | 0.486 | 0.359 | 0.445 | 1.01 | 1.02 | 1.02 | 0.86
SW 1573 | 0.602 | 0.564 | 0.589 | 0.445 | 0.913 | 0.912 | 1.21 | 1.16 | 1.25 | 1.15 | 1.25 | 1.01 | 0.638 | 0.379 | 0.548 | 0.42 | 1.06 | 0.791 | 0.94 | 0.829
UMC-11 | 0.891 | 0.679 | 0.736 | 0.646 | 0.349 | 0.318 | 0.349 | 0.302 | 1.26 | 0.898 | 1.05 | 0.947 | 0.662 | 0.474 | 0.494 | 0.447 | 1.09 | 0.883 | 1.11 | 1.09
